As usually defined, the IC50 is the concentration at which inhibition is half-maximal.

Data on six compounds can be found in ChEMBL document CHEMBL4118087, “Inhibitors of CD73 May Provide a Treatment for Cancer and Autoimmune Diseases” (ACS Med Chem Lett, 2017).

A value given as a limit tells only on which side of the number the result lay.

The experiment has as its target 5'-nucleotidase (Homo sapiens, UniProt P21589, T376A). Nature of the experiment: Inhibition of human flag-tagged CD73 Thr376Ala mutant (1 to 552 residues) assessed as reduction in conversion of AMP to adenosine incubated for 10 mins followed by AMP addition measured after 30 mins by RapidFire mass spectrometric analysis.

5'-nucleotidase, sequence (P21589 27-549 T376A limits assumed): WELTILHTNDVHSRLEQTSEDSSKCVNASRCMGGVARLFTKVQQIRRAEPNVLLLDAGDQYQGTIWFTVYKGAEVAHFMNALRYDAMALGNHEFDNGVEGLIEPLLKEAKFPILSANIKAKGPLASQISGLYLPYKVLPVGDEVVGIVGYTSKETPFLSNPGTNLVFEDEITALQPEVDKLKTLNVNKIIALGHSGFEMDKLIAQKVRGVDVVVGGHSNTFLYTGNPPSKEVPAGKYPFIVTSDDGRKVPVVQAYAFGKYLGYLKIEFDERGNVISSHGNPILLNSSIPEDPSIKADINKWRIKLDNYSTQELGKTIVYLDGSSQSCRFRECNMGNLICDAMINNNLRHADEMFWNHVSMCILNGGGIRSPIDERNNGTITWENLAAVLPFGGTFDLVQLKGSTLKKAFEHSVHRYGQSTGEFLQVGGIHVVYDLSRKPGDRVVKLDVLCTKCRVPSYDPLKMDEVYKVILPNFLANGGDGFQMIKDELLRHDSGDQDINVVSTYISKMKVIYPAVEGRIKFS

For the compound `Cc1ccc(NC2=Nc3c(O)cc(Cl)cc3S(=O)(=O)N2)cc1`, the IC50 was 1000 nM.

As to `O=S1(=O)NC(Nc2cccc(O)c2)=Nc2c(O)cc(F)cc21`, the half-inhibitory concentration (IC50) was 100 nM. Then `O=S1(=O)NC(Nc2cccc3[nH]ccc23)=Nc2c(O)cc(Cl)cc21`, with not above 316 nM; and `O=S1(=O)NC(Nc2cccc3[nH]ncc23)=Nc2c1cc(Cl)c(F)c2O`, with 15.8 nM; and `O=S1(=O)N=C(Nc2cc(F)c3[nH]ccc3c2)Nc2c(O)cc(Cl)c(Br)c21`, with 63.1 nM. As to `CN(C)C(=O)Cc1cccc(NC2=Nc3c(O)cc(Cl)cc3S(=O)(=O)N2)c1`, the IC50 was 3160 nM.
